Results on two compounds are retold here after PMC6609550, “Blockade of the forward Na^+/Ca^2+ exchanger suppresses the growth of glioblastoma cells through Ca^2+‐mediated cell death” (British Journal of Pharmacology, 2019).

Data set [1] relates to U87 cells. The data set is described as follows: Cell viability assay (Cell Counting Kit-8), U87. The note with it: for IC50: 72 hr, CCK-8, mean ± SEM. The class given is cell-based, Human. As to the method:
Cell viability was determined by using a Cell Counting Kit‐8 (Dojindo, Japan). Briefly, cells were harvested from flasks and plated in 96‐well cell culture plates at 5 × 10^3 per well and cultured overnight. […] Control cells were treated with cell culture medium and measured at the same time point as treatment groups. CCK‐8 solution (10 μl) was added to each well of the 96‐well plates, and the cultures were incubated for 30 min at 37°C. Absorbance at 450 nm was measured using an automatic microplate reader (Molecular Devices, San Jose, CA, USA).
Figure 2 Effect of the Na^+/Ca^2+ exchanger (NCX) blockers on viability of human glioblastoma cell lines. (a, b) Viability of adult glioblastoma cell lines (U87 and U251) after exposure to NCX blockers bepridil, KB‐R7943, SEA0400, SN‐6, or YM244769 at 0–100 μM for 72 hr. n = 5 independent tests per group. (c) Viability of paediatric glioblastoma cell line SF188 after 72‐hr incubation with the same NCX blockers at 0–100 μM. n = 5 independent tests per group. (d) For U87, U251, and SF188 cell lines, concentration of the NCX blockers required to produce half maximal inhibition (IC50: μM, mean ± SEM) of cell viability.

Another data set concerns human astrocytes. Description: Cell viability of human astrocytes. The class given is cell-based. Conditions: 25 μM, 48 hr. As to the method:
Cell viability was determined by using a Cell Counting Kit‐8 (Dojindo, Japan). Briefly, cells were harvested from flasks and plated in 96‐well cell culture plates at 5 × 10^3 per well and cultured overnight. Cells were treated with test reagents for 72 hr. Control cells were treated with cell culture medium and measured at the same time point as treatment groups. CCK‐8 solution (10 μl) was added to each well of the 96‐well plates, and the cultures were incubated for 30 min at 37°C. Absorbance at 450 nm was measured using an automatic microplate reader (Molecular Devices, San Jose, CA, USA).
Figure 8 Impact of bepridil on human astrocytes (HA) and the Na^+/Ca^2+ exchanger (NCX) isoforms in each cell line. (a) Viability of U87, U251, and SF188 cells and HA after exposure to bepridil (25 μM, 48 hr); n = 5 independent tests in each group. (b) The bands of NCX1, NCX2, and NCX3 isoforms detected by Western blot analysis in the sample of HA and glioblastoma cell lines U87, U118, A172, U251, and SF188. (c) Representative recording of the NCX currents in HA and glioblastoma cell lines. (d) Viability of U87, U251, and SF188 cells and HA after exposure to KB‐R7943 (25 μM, 48 hr). n = 5 independent tests in each group

Data set [2] relates to U87 cells. Description: Cell cycle assay (PI staining, flow cytometry) of U87 cells. Type of data set: cell-based, Human. The note with it: bepridil 25 μM 6–24 hr, CB‐DMB 3.5 μM 6–24 hr, KB‐R7943 25 μM 18 hr, BAPTA‐AM 10 μM 18 hr, CC‐930 10 μM, PD169316 10 μM 18 hr. As to the method:
U87 cells were seeded in six‐well plates (Corning, Corning, NY, USA) with 1 × 10^6 cells per well and treated with NCX blockers, BAPTA‐AM, or MAPK inhibitors. Drug treatment was performed by the person who is blinded to the experimental groups. After treatment, cells were harvested in 15‐ml tubes and washed with cold sterile PBS. After being centrifuged, cells were fixed with 70% ethanol […] at 4°C for at least 1 hr. For propidium iodide (PI) staining, cells were washed one time with PBS and then were treated with ribonuclease A (RNase; 100 μg·ml^−1) for 30 min. PI (10 μg·ml^−1) was added, and stained cells were kept in the dark at 4°C until analysis. The number of cells analysed for each sample was 10,000 events. FACS analysis was performed using the Coulter CytoFlexS flow cytometer (Beckman Coulter, CA, USA), and the percentage of cells in the G0/G1, S, and G2/M phases was determined using cell cycle analysis software, ModFit LT 5.0 (Verity Software House, Topsham, ME, USA). For the apoptosis assay, cells were harvested and washed twice with cold PBS and resuspended at a density of 1 × 10^6 cells·ml^−1 in 100 μl of binding buffer containing 5 μl of Annexin V–FITC and 5 μl of PI working solution (100 μg·ml^−1). After incubation at room temperature for 15 min in the dark, 400 μl of binding buffer was added to each sample. Apoptosis was analysed by Coulter CytoFlexS flow cytometer (Beckman Coulter) for at least 10,000 events, and data were analysed with the software, CyExpert 2.0 (Beckman Coulter).
(In general: Flow cytometry measures light scatter and fluorescence of single cells or particles in a stream.)

For the compound `CC(C)COCC(CN(Cc1ccccc1)c1ccccc1)N1CCCC1` (stereo not shown) [Bepridil, N‐benzyl‐N‐(3‐isobutoxy‐2‐pyrrolidin‐1‐yl‐propyl)aniline], in the data set with U87 cells [1] (25 μM, 48 hr), the “Effect on growth (viability) of U87 cells” value was “markedly suppressed growth”. Moreover, 18.6 ± 1.1 µM corresponded to half-maximal inhibition with U87 cells [1] (Homo sapiens, U-87 MG) (IC50). In the data set with human astrocytes, the “Cytotoxicity in human astrocytes (viability)” value is “did not generate apparent cytotoxicity”. Also, the “Effect on cell cycle distribution, compound alone” value with U87 cells [2] is “reduced the cell fraction in S phase and increased cells in G0/G1 phase in a time‐dependent manner”.

Turning to `CS(=O)(=O)O.N=C(N)SCCc1ccc(OCc2ccc([N+](=O)[O-])cc2)cc1` [KB‐R7943, 2‐[4‐[(4‐nitrophenyl)methoxy]phenyl]ethyl ester carbamimidothioic acid methanesulfonate], half-maximal inhibition in the data set with U87 cells [1] (IC50) required 26.6 ± 1.4 µM. For the same compound, in the data set with human astrocytes, the “Cytotoxicity in human astrocytes (viability)” value is given as “deleterious to astrocytes”. In addition, the “Effect on cell cycle distribution, compound alone” value in the data set on U87 cells [2] is “caused G0/G1 arrest and apoptosis”.
